Source: ChEMBL document CHEMBL6071133, “Discovery of novel penetrating peptides able to target human leukemia and lymphoma for enhanced PROTAC delivery” (Eur J Med Chem, 2024)
Calls of active or inactive are those of the source. No cut-off for these calls is given here.

Legend:
[1] = Drug uptake in human THP-1 cells assessed as increase in fluorescence intensity at 10 umol/L incubated for 2 hrs by cell imaging based fluorescence microscopic analysis; type: ADME; settings: thp-1, 2 h, 10 µM, dose 10 µmol/L
[2] = Interaction with IMA-PROTAC assessed as induction of assembly formation by transmission electron microscopy; type: physicochemical
[3] = Drug uptake in human K562 cells assessed as membrane permeability by measuring increase in fluorescence intensity at 5 umol/L incubated for 2 hrs by flow cytometry relative to THP-1 cells; type: ADME, cell-based; settings: k562, 2 h, 5 µM, dose 5 µmol/L
[4] = Drug uptake in human KU812 cells assessed as increase in fluorescence intensity at 1 to 10 umol/L incubated for 2 hrs by cell imaging based fluorescence microscopic analysis; type: ADME; settings: ku812, 2 h, dose 1-10 µmol/L
K562 [5] = experiment: Potentiation of IMA-PROTAC-induced cytotoxicity against human K562 cells assessed as inhibition of cell growth at compound: IMA-PROTAC concentration ratio of 5:1 incubated for 48 hrs in presence of 3 umo/L IMA-PROTAC by MTT assay; type: functional, cell-based
[6] = Cytotoxicity against human THP-1 cells assessed as cell viability at higher concentrations incubated for 48 hrs by MTT assay; type: toxicity, cell-based; settings: read-out: Activity
K562 [7] = experiment: Induction of cell cycle arrest in human K562 cells assessed as accumulation of cells at G2/M phase at PROTAC to compound concentration ratio of 1:5 incubated for 48 hrs in presence of 3 umol/L IMA-PROTAC by propidium iodide staining based flow cytometry; type: functional
K562 [8] = experiment: Increase in membrane permeability of IMA-PROTAC in human K562 cells assessed as potentiation of IMA-PROTAC-induced Bcr-Abl degradation at PROTAC to compound concentration ratio of 1:5 pretreated with proteasome inhibitor, MG132 and carfilzomib followed by incubation with compound for 48 hrs in presence of 3 umol/L IMA-PROTAC by western blot analysis; type: functional, cell-based
[9] = Stability of the compound in fetal bovine serum assessed as parent compound remaining measured after 36 hrs by HPLC-MS analysis; type: ADME, cell-free, Bos taurus; settings: cattle, read-out: Stability

- Drug uptake [1]: Active
- Activity [2]: Not Active
- fold change (FC) [3]: 8.8
- Drug uptake [4]: Active
- remaining at 36 h [9]: 55%
SMILES: CC(C)C[C@H](NC(=O)[C@H](Cc1csc2ccccc12)NC(=O)[C@@H](Cc1ccccc1)NC(=O)[C@H](Cc1ccccc1)NC(=O)CNC(=O)[C@@H](N)CS)C(=O)N[C@@H](CCCNC(=N)N)C(=O)N[C@@H](CO)C(=O)N[C@@H](CS)C(=O)O
- Activity (K562 [5]): inactive
- viability at 48 h [6]: > 75%
- Activity (K562 [7]): Active
- Activity (K562 [8]): inactive
